In patent publication US20100305140A1, “BENZIMIDAZOLE DERIVATIVES WHICH ARE TO BE USED AS ANTAGONIST FOR THE CB1-RECEPTOR” (AstraZeneca AB, priority 2006, published 2010) one finds Ki, EC50 and Emax data, which are given here for three compounds.

For assay [1], the target named is T1, Human CB1 receptor (hCB1) (Homo sapiens, UniProt P21554).
T1 construct: purchased Receptor Biology
Kind of assay: hCB1 receptor binding (3H-CP55,940 displacement). Conditions: human CB1 receptor membranes. As to the method: hCB1 and hCB2 Receptor Binding
Human CB1 receptor from Receptor Biology (hCB1) or human CB2 receptor from BioSignal (hCB2) membranes are thawed at 37° C., passed 3 times through a 25-gauge blunt-end needle, diluted in the cannabinoid binding buffer (50 mM Tris, 2.5 mM EDTA, 5 mM MgCl2, and 0.5 mg/mL BSA fatty acid free, pH 7.4) and aliquots containing the appropriate amount of protein are distributed into 96-well plates. The IC50 of the compounds of the invention at hCB1 and hCB2 are evaluated from 10-point dose-response curves done with ^3H-CP55,940 at 20000 to 25000 dpm per well (0.17-0.21 nM) in a final volume of 300 μl. The total and non-specific binding are determined in the absence and presence of 0.2 μM of HU210 respectively. The plates are vortexed and incubated for 60 minutes at room temperature, filtered through Unifilters GF/B (presoaked in 0.1% polyethyleneimine) with the Tomtec or Packard harvester using 3 mL of wash buffer (50 mM Tris, 5 mM MgCl2, 0.5 mg BSA pH 7.0). The filters are dried for 1 hour at 55° C. The radioactivity (cpm) is counted in a TopCount (Packard) after adding 65 μl/well of MS-20 scintillation liquid.
Based on the above assays, the dissociation constant (Ki) for a particular compound of the invention towards a particular receptor is determined using the following equation: […]

Assay [2] addresses T1, Human CB1 receptor (hCB1). Kind of assay: hCB1 GTPγS binding. It counts as biochemical. Conditions: human CB1 receptor membranes, GTPγ35S; for EC50: unit inferred; for Emax: maximal stimulated binding determined with 10 μM Win 55,212-2. Here is the method: hCB1 and hCB2 GTPγS Binding
Human CB1 receptor from Receptor Biology (hCB1) or human CB2 receptor membranes (BioSignal) are thawed at 37° C., passed 3 times through a 25-gauge blunt-end needle and diluted in the GTPγS binding buffer (50 mM Hepes, 20 mM NaOH, 100 mM NaCl, 1 mM EDTA, 5 mM MgCl2, pH 7.4, 0.1% BSA). The EC50 and Emax of the compounds of the invention are evaluated from 10-point dose-response curves done in 300 μl with the appropriate amount of membrane protein and 100000-130000 dpm of GTPg^35S per well (0.11-0.14 nM). The basal and maximal stimulated binding is determined in absence and presence of 1 μM (hCB2) or 10 μM (hCB1) Win 55,212-2 respectively. The membranes are pre-incubated for 5 minutes with 56.25 μM (hCB2) or 112.5 μM (hCB1) GDP prior to distribution in plates (15 μM (hCB2) or 30 μM (hCB1) GDP final). The plates are vortexed and incubated for 60 minutes at room temperature, filtered on Unifilters GF/B (presoaked in water) with the Tomtec or Packard harvester using 3 ml of wash buffer (50 mM Tris, 5 mM MgCl2, 50 mM NaCl, pH 7.0). The filters are dried for 1 hour at 55° C. The radioactivity (cpm) is counted in a TopCount (Packard) after adding 65 μl/well of MS-20 scintillation liquid. Antagonist reversal studies are done in the same way except that (a) an agonist dose-response curve is done in the presence of a constant concentration of antagonist, or (b) an antagonist dose-response curve is done in the presence of a constant concentration of agonist.

T1 sequence (P21554 whole entry): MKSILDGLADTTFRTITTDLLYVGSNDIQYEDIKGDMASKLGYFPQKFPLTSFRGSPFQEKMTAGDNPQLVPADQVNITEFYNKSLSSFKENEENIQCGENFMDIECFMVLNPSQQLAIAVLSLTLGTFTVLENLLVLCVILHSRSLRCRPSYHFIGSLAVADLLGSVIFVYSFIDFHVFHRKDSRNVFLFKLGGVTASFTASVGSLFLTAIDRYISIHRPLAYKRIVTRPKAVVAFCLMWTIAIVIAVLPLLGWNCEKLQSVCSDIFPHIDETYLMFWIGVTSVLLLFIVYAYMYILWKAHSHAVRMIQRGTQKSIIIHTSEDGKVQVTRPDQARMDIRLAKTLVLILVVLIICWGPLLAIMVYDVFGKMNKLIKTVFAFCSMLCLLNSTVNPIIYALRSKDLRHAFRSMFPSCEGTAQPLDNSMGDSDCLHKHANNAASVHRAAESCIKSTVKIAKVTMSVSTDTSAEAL

Regarding `CC(C)(C)c1nc2cc(C(=O)N3CCC(C(=O)NC4CC4)CC3)ccc2n1CC1CCC(F)(F)CC1`, affinity in assay [1] was put at a Ki of 19.2 nM. Further, in assay [2], it took 16.7 nM to reach a half-maximal effect (EC50) and the Emax (usually the size of the effect at its maximum, as opposed to the concentration needed) is 115%.
For `CC(C)(C)c1nc2cc(C(=O)N3CCC(C(=O)NC4CC4)CC3)ccc2n1CC1CCCCC1`, in that order: 23.8 nM, 37.7 nM and 134%.
Take `Cc1cc(NC(=O)C2CCN(C(=O)c3ccc4c(c3)nc(C(C)(C)C)n4CC3CCC(F)(F)CC3)CC2)no1`: in assay [2], a half-maximal response (EC50) required 1770 nM and the Emax was 132%.
